According to ChEMBL document CHEMBL3734705, “Synthesis and in vitro cytotoxicity of novel C-12 substituted-14-deoxy-andrographolide derivatives as potent anti-cancer agents” (2015):
Active and inactive are the calls of the source. The rule behind the calls is not given here.

Columns and labels:
[1] = Cytotoxicity against human RPMI8226 cells assessed as growth level at 10 uM after 48 hrs by SRB assay; format: functional, RPMI-8226
EKVX = experiment: Cytotoxicity against human EKVX cells assessed as growth level at 10 uM after 48 hrs by SRB assay; format: functional
[2] = Cytotoxicity against human HOP62 cells assessed as growth level at 10 uM after 48 hrs by SRB assay; format: functional, HOP-62
NCI-H522 = experiment: Cytotoxicity against human NCI-H522 cells assessed as growth level at 10 uM after 48 hrs by SRB assay; format: functional
[3] = Cytotoxicity against human COLO205 cells assessed as growth level at 10 uM after 48 hrs by SRB assay; format: functional, COLO 205
HT-29 [4] = experiment: Cytotoxicity against human HT-29 cells assessed as growth level at 10 uM after 48 hrs by SRB assay; format: functional
[5] = Cytotoxicity against human SW620 cells assessed as growth level at 10 uM after 48 hrs by SRB assay; format: functional, SW-620
[6] = Cytotoxicity against human SF268 cells assessed as growth level at 10 uM after 48 hrs by SRB assay; format: functional, SF-268
[7] = Cytotoxicity against human SF539 cells assessed as growth level at 10 uM after 48 hrs by SRB assay; format: functional, SF-539
[8] = Cytotoxicity against human LOXIMVI cells assessed as growth level at 10 uM after 48 hrs by SRB assay; format: functional, LOX IMVI
M14 = experiment: Cytotoxicity against human M14 cells assessed as growth level at 10 uM after 48 hrs by SRB assay; format: functional
MDA-MB-435 [9] = experiment: Cytotoxicity against human MDA-MB-435 cells assessed as growth level at 10 uM after 48 hrs by SRB assay; format: functional
[10] = Cytotoxicity against human UACC257 cells assessed as growth level at 10 uM after 48 hrs by SRB assay; format: functional, UACC-257
[11] = Cytotoxicity against human IGROV1 cells assessed as growth level at 10 uM after 48 hrs by SRB assay; format: functional, IGROV-1
[12] = Cytotoxicity against human OVCAR8 cells assessed as growth level at 10 uM after 48 hrs by SRB assay; format: functional, OVCAR-8
[13] = Cytotoxicity against human SKOV3 cells assessed as growth level at 10 uM after 48 hrs by SRB assay; format: functional, SK-OV-3
786-0 [14] = experiment: Cytotoxicity against human 786-0 cells assessed as growth level at 10 uM after 48 hrs by SRB assay; format: functional
A498 = experiment: Cytotoxicity against human A498 cells assessed as growth level at 10 uM after 48 hrs by SRB assay; format: functional
[15] = Cytotoxicity against human TK10 cells assessed as growth level at 10 uM after 48 hrs by SRB assay; format: functional, TK-10
[16] = Cytotoxicity against human Hs578T cells assessed as growth level at 10 uM after 48 hrs by SRB assay; format: functional, Hs-578T
MDA-MB-468 [17] = experiment: Cytotoxicity against human MDA-MB-468 cells assessed as growth level at 10 uM after 48 hrs by SRB assay; format: functional
A549 = experiment: Cytotoxicity against human A549 cells assessed as growth inhibition at 10 uM after 48 hrs by SRB assay; format: functional; details: A549, 48 h, read-out: GI
[18] = Cytotoxicity against human HOP62 cells assessed as growth inhibition at 10 uM after 48 hrs by SRB assay; format: functional; details: HOP-62, 48 h, read-out: GI
NCI-H226 = experiment: Cytotoxicity against human NCI-H226 cells assessed as growth inhibition at 10 uM after 48 hrs by SRB assay; format: functional; details: NCI-H226, 48 h, read-out: GI
NCI-H322M = experiment: Cytotoxicity against human NCI-H322M cells assessed as growth inhibition at 10 uM after 48 hrs by SRB assay; format: functional; details: read-out: GI
[19] = Cytotoxicity against human COLO205 cells assessed as growth inhibition at 10 uM after 48 hrs by SRB assay; format: functional; details: COLO 205, 48 h, read-out: GI
HT-29 [20] = experiment: Cytotoxicity against human HT-29 cells assessed as growth inhibition at 10 uM after 48 hrs by SRB assay; format: functional; details: HT-29, 48 h, read-out: GI
[21] = Cytotoxicity against human SNB75 cells assessed as growth inhibition at 10 uM after 48 hrs by SRB assay; format: functional; details: SNB-75, 48 h, read-out: GI
[22] = Cytotoxicity against human LOXIMVI cells assessed as growth inhibition at 10 uM after 48 hrs by SRB assay; format: functional; details: LOX IMVI, read-out: GI
MDA-MB-435 [23] = experiment: Cytotoxicity against human MDA-MB-435 cells assessed as growth inhibition at 10 uM after 48 hrs by SRB assay; format: functional; details: MDA-MB-435, 48 h, read-out: GI
[24] = Cytotoxicity against human UACC62 cells assessed as growth inhibition at 10 uM after 48 hrs by SRB assay; format: functional; details: UACC-62, 48 h, read-out: GI
[25] = Cytotoxicity against human OVCAR4 cells assessed as growth inhibition at 10 uM after 48 hrs by SRB assay; format: functional; details: OVCAR-4, 48 h, read-out: GI
786-0 [26] = experiment: Cytotoxicity against human 786-0 cells assessed as growth inhibition at 10 uM after 48 hrs by SRB assay; format: functional; details: 786-0, 48 h, read-out: GI
[27] = Cytotoxicity against human Caki1 cells assessed as growth inhibition at 10 uM after 48 hrs by SRB assay; format: functional; details: CAKI-1, 48 h, read-out: GI
[28] = Cytotoxicity against human TK10 cells assessed as growth inhibition at 10 uM after 48 hrs by SRB assay; format: functional; details: TK-10, 48 h, read-out: GI
[29] = Cytotoxicity against human PC3 cells assessed as growth inhibition at 10 uM after 48 hrs by SRB assay; format: functional; details: PC-3, 48 h, read-out: GI
MCF7 = experiment: Cytotoxicity against human MCF7 cells assessed as growth inhibition at 10 uM after 48 hrs by SRB assay; format: functional; details: MCF7, 48 h, read-out: GI
MDA-MB-231 = experiment: Cytotoxicity against human MDA-MB-231 cells assessed as growth inhibition at 10 uM after 48 hrs by SRB assay; format: functional
MDA-MB-468 [30] = experiment: Cytotoxicity against human MDA-MB-468 cells assessed as growth inhibition at 10 uM after 48 hrs by SRB assay; format: functional; details: MDA-MB-468, 48 h, read-out: GI
CCRF-CEM = experiment: Cytotoxicity against human CCRF-CEM cells assessed as growth level at 10 uM after 48 hrs by SRB assay; format: functional
[31] = Cytotoxicity against human HL-60(TB) cells assessed as growth level at 10 uM after 48 hrs by SRB assay; format: functional
[32] = Cytotoxicity against human HL-60(TB) cells assessed as growth inhibition at 10 uM after 48 hrs by SRB assay; format: functional; details: HL-60, 48 h, read-out: GI
[33] = Cytotoxicity against human SF295 cells assessed as growth inhibition at 10 uM after 48 hrs by SRB assay; format: functional; details: SF-295, 48 h, read-out: GI
[34] = Cytotoxicity against human SKOV3 cells assessed as growth inhibition at 10 uM after 48 hrs by SRB assay; format: functional; details: SK-OV-3, 48 h, read-out: GI

C=C1CC[C@@H]2[C@](C)(CO)[C@H](O)CC[C@@]2(C)[C@@H]1C/C=C1/C(=O)OC[C@H]1O [ANDROGRAPHOLIDE]
Activity [1]: 83.28% | Activity (EKVX): 104.75% | Activity [2]: 96.27% | Activity (NCI-H522): 17.13% | Activity [3]: 94.9% | Activity (HT-29 [4]): 27% | Activity [5]: 44.29% | Activity [6]: 97.66% | Activity [7]: 83.41% | Activity [8]: 21.84% | Activity (M14): 84.88% | Activity (MDA-MB-435 [9]): 72.62% | Activity [10]: 76.51% | Activity [11]: 103.71% | Activity [12]: 84.48% | Activity [13]: 103.76% | Activity (786-0 [14]): 84.71% | Activity (A498): 87.79% | Activity [15]: 97.49% | Activity [16]: 110.33% | Activity (MDA-MB-468 [17]): 42% | inhibition of growth at 10 µM (A549): 12.2% | inhibition of growth at 10 µM [18]: 3.73% | inhibition of growth at 10 µM (NCI-H226): 8.26% | inhibition of growth at 10 µM (NCI-H322M): 7.26% | inhibition of growth at 10 µM [19]: 5.1% | inhibition of growth at 10 µM (HT-29 [20]): 73% | inhibition of growth at 10 µM [21]: 38% | inhibition of growth at 10 µM [22]: 78.2% | inhibition of growth at 10 µM (MDA-MB-435 [23]): 27.4% | inhibition of growth at 10 µM [24]: 30.1% | inhibition of growth at 10 µM [25]: 17.1% | inhibition of growth at 10 µM (786-0 [26]): 15.3% | inhibition of growth at 10 µM [27]: 3.3% | inhibition of growth at 10 µM [28]: 2.51% | inhibition of growth at 10 µM [29]: 6.6% | inhibition of growth at 10 µM (MCF7): 42.2% | growth inhibition (GI) (MDA-MB-231): inactive | inhibition of growth at 10 µM (MDA-MB-468 [30]): 58% | Activity (CCRF-CEM): 23.48% | Activity [31]: 100.04%

C=C1CC[C@@H]2[C@](C)(COC(C)=O)[C@H](OC(C)=O)CC[C@@]2(C)[C@@H]1CC(NCc1ccccc1)C1=CCOC1=O (mixture of isomers)
Activity [1]: 3.18% | Activity (EKVX): 53.91% | Activity [2]: 89.01% | Activity [3]: 45.59% | Activity [5]: 47.31% | Activity [6]: 62.15% | Activity [7]: 79.48% | Activity [8]: 44.58% | Activity (M14): 42.07% | Activity (MDA-MB-435 [9]): 27.9% | Activity [10]: 32.81% | Activity [11]: 62.9% | Activity [12]: 28.22% | Activity [13]: 79.25% | Activity (786-0 [14]): 71.35% | Activity (A498): 56.22% | Activity [16]: 86.43% | Activity (MDA-MB-468 [17]): 22.86% | inhibition of growth at 10 µM [32]: 9.93% | inhibition of growth at 10 µM (A549): 50.8% | inhibition of growth at 10 µM [18]: 11% | inhibition of growth at 10 µM (NCI-H226): 88.6% | inhibition of growth at 10 µM (NCI-H322M): 23% | inhibition of growth at 10 µM [19]: 54.4% | inhibition of growth at 10 µM [33]: 36.1% | inhibition of growth at 10 µM [21]: 23.1% | inhibition of growth at 10 µM [22]: 55.4% | inhibition of growth at 10 µM (MDA-MB-435 [23]): 72.1% | inhibition of growth at 10 µM [24]: 61.2% | inhibition of growth at 10 µM [25]: 64.1% | inhibition of growth at 10 µM [34]: 20.8% | inhibition of growth at 10 µM (786-0 [26]): 28.6% | inhibition of growth at 10 µM [27]: 50.4% | inhibition of growth at 10 µM [29]: 89.9% | inhibition of growth at 10 µM (MCF7): 70.2% | inhibition of growth at 10 µM (MDA-MB-231; MDA-MB-231, 48 h, read-out: GI): 35.3% | inhibition of growth at 10 µM (MDA-MB-468 [30]): 77.1% | Activity (CCRF-CEM): 20.9% | Activity [31]: -9.93%
